These results are taken from ChEMBL document CHEMBL1828577, “Design and synthesis of some new thiophene, thienopyrimidine and thienothiadiazine derivatives of antipyrine as potential antimicrobial agents” (2011).

Assay [1] deals with Staphylococcus aureus. In words: Antibacterial activity against Staphylococcus aureus RCMB 000106 at 30 mg/ml after 24 hrs by agar well diffusion method. The assay is classed as functional. As to conditions: RCMB 000106, 24 h, read-out: DIZ.
In assay [2] the test system is Bacillus subtilis. As to the kind of experiment: Antibacterial activity against Bacillus subtilis RCMB 000107 at 30 mg/ml after 24 hrs by agar well diffusion method. The assay is classed as functional. The settings on record: RCMB 000107, 24 h, read-out: DIZ.

Each structure is given as a SMILES string.

Turning to `CN[C@@H]1[C@H](O[C@H]2[C@H](O[C@H]3[C@H](O)[C@@H](O)[C@H](N=C(N)N)[C@@H](O)[C@@H]3N=C(N)N)O[C@@H](C)[C@]2(O)C=O)O[C@@H](CO)[C@H](O)[C@H]1O` [STREPTOMYCIN], the zone of inhibition at 30000 µg/mL in assay [1] is 25 mm; in assay [2], 29 mm.

As to `CC1(C)S[C@@H]2[C@H](NC(=O)Cc3ccccc3)C(=O)N2[C@H]1C(=O)O` [PENICILLIN G], the figures for the zone of inhibition at 30000 µg/mL in assay [1] and in assay [2] were 29.4 mm and 32.5 mm, respectively.
